This is an account of results in article PMC9230623, “Design, Synthesis, In Vitro Biological Activity Evaluation and Stabilized Nanostructured Lipid Carrier Formulation of Newly Synthesized Schiff Bases-Based TMP Moieties” (Pharmaceuticals, 2022).

Where two headings read alike, the source gives them in different places.

The subject of data set [1] is MCF-7 breast cancer cell line. Particulars: MCF-7 ref 26; cited from earlier work.
The test system of data set [2] is MDA-MB-231 breast cancer cell line. Put plainly: Cytotoxic assay against MDA-MB-231 breast cancer cell line. It is filed as cell-based. The conditions noted are these: Homo sapiens. On the procedure: The newly prepared Schiff bases 2–5g were screened for their in vitro cytotoxic activity against the MDA-MB-231 breast cancer cell line taking CA-4 as a reference drug. […] In addition, further structure extension to give N-aryl hydrazinyl molecules 4a–5g produced compounds with considerable cytotoxic activity, which may give an indication that the aryl ring is important for cytotoxic activity. […]
Cytotoxic activity of the prepared schiff bases against MDA-MB-231 breast cell Line was determined according previously reported methods. (See Supplementary Materials—Appendix SB).

Data set [3] deals with normal breast cell line MCF-10A. Put plainly: Cytotoxic assay against normal breast cell line MCF-10A. It is filed as cell-based. The conditions noted are these: Homo sapiens, read-out: IC50 Value (μM) MCF-10A.
Data set [4] deals with tubulin. The data set is described as follows: Tubulin polymerization inhibition by immunofluorescence analysis (confocal microscope). The conditions noted are these: at its IC50 concentration, MDA-MB-231, compared with untreated cells. The class given is cell-based, human. Here is the method:
Several investigations have shown that TMP-containing compounds such as Col and CA-4 interact with tubulin at the colchicine binding site, inhibiting microtubule assembly. The effects of representative Schiff bases on the inhibition of tubulin assembly were evaluated. […] Tubulin polymerization inhibitory activity against the MDA-MB-231 cell line was investigated by immunofluorescence analysis using a confocal microscope.
(§1) Compound 4h was evaluated for their Tubulin inhibitory activity according to manufacturer’s instructions.

Data set [5] concerns mitochondrial membrane potential of MDA-MB-231 cells. The data set is described as follows: Mitochondrial membrane potential by flow cytometry. The class given is cell-based, human. Here is the method:
Most of the known anticancer molecules induce apoptotic cascade via activation of the intrinsic pathway via release of cytochrome-c after depolarization of mitochondrial membrane. The potential status of the mitochondrial membrane is determined by the electrochemical gradient (Δψ).
(§2) See Supplementary Materials—Appendix SB.
Background: A flow cytometer gives signals particle by particle.

Data set [6] concerns MDA-MB-231 cells. The data set is described as follows: Annexin V FITC/PI staining apoptosis assay. It is filed as cell-based, human. Here is the method: A double staining examination of annexin V FITC/propidium iodide (PI) was used to evaluate compound 4h’s influence on apoptosis and estimate the percentage of the total, early, and late apoptosis in MDA-MB-231 cells. […] Furthermore, the proportion of early and late apoptotic cells rose by 23.12- and 63.67-fold, respectively, as compared to the untreated control cells.
as §2

Data set [7] concerns MDA-MB-231 cells. The data set is described as follows: Cell cycle analysis (FACS, DNA flow cytometry). The class given is cell-based, human.
Description: For the purpose of studying the influence of these hydrazides on the cell cycle progression of MDA-MB-231 human malignant cell lines. A FACS analysis was used to determine the DNA proportion of cell nuclei.
as §2

In a further data set the test system is β-tubulin. The data set is described as follows: Tubulin polymerization inhibitory activity, ELISA assay for β-tubulin. Particulars: at IC50 (1.27 μM), compared with no treatment control. The class given is cell-based, human. On the procedure:
In addition, compound 4h was subjected to in vitro tubulin polymerization inhibitory activity assay using ELISA assay for β-tubulin.
as §1
(In general: ELISA stands for enzyme-linked immunosorbent assay.)

For data set [8], the system named is four human cancer cell lines. On the set-up: method as in PMID 27149641. Particulars: four human cancer cell lines ref 21; read-out: IC50 antiproliferative activity; cited from earlier work.
The test system of data set [9] is tubulin. On the set-up: method as in PMID 32325332. Particulars: at its IC50 dose level ref 22; cited from earlier work.
The mark [10] stands for this setting: MDA-MB-231, mean of three independent replicates ± SE, read-out: IC50 Value (μM) MDA-MB-231.
Setting [11] is: compared to untreated control cells.

With `COc1cc(C(=O)N/N=C/c2cc3ccccc3[nH]2)cc(OC)c1OC` [VII], in data set [1], the 50% inhibitory concentration (IC50) (as a rule, the concentration that gives 50% inhibition) was 0.87 µM.

Take `COc1cc(/C=C(\NC(=O)c2cc(OC)c(OC)c(OC)c2)C(=O)N/N=C/c2ccccc2O)cc(OC)c1OC` [Compound 4d, N-((Z)-3-((E)-2-(2-Hydroxybenzylidene)hydrazinyl)-3-oxo-1-(3,4,5-trimethoxyphenyl)prop-1-en-2-yl)-3,4,5-trimethoxybenzamide]: the melting point (in general, the temperature of the solid-liquid transition) is 220 to 222 °C. The half-maximal inhibitory concentration (IC50) in data set [2] (setting [10]) came out at 5.98 ± 0.28 µM.

The compound `COc1ccc(/C(C)=N/NC(=O)/C(=C/c2cc(OC)c(OC)c(OC)c2)NC(=O)c2cc(OC)c(OC)c(OC)c2)cc1OC` [Compound 5f, N-((Z)-3-((E)-2-(1-(3,4-Dimethoxyphenyl)ethylidene)hydrazinyl)-3-oxo-1-(3,4,5-trimethoxyphenyl)prop-1-en-2-yl)-3,4,5-trimethoxybenzamide] had a melting point of 234 to 236 °C. Moreover, the IC50 in [2] (setting [10]) worked out at 8.34 ± 1.22 µM.

As for `COc1cc(/C=C(\NC(=O)c2cc(OC)c(OC)c(OC)c2)C(=O)N/N=C/c2cc(Br)c(O)c(Br)c2)cc(OC)c1OC` [Compound 4h, N-((Z)-3-((E)-2-(3,5-Dibromo-4-hydroxybenzylidene)hydrazinyl)-3-oxo-1-(3,4,5-trimethoxyphenyl)prop-1-en-2-yl)-3,4,5-trimethoxybenzamide], the half-inhibitory concentration (IC50) was 1.27 ± 0.18 µM in data set [2] (setting [10]) and 30.8 ± 2.32 µM in data set [3] (mean of three independent replicates ± SE). The “tubulin polymerization inhibition activity (immunofluorescence)” value with tubulin [4] was “good tubulin polymerization inhibition activity”. Moreover, the “reduction in the level of MMPψ” value in [5] (IC50 concentration, 24 h, in comparison with untreated cells) was 65.23%. Moreover, the “decrease in the level of MMP” value in data set [5] (compared to negative control cells) is reported as 3 fold. In the data set with MDA-MB-231 cells [6] (24 h, no treatment control 1.63%), the overall apoptosis was found to be 31.27%. Moreover, the “rise of early apoptotic cells” value with MDA-MB-231 cells [6] (setting [11]) is given as 23.12 fold. In addition, in the data set on MDA-MB-231 cells [6] (setting [11]), the “rise of late apoptotic cells” value turned out to be 63.67 fold. Further, in the data set with MDA-MB-231 cells [7] (IC50 concentration, 24 h), the “%Pre-G1” value stood at 31.27%. The “%DIP G2/M” value with MDA-MB-231 cells [7] (IC50 concentration, 24 h, untreated control 8.22%) was found to be 38.65%. Moreover, in the data set with MDA-MB-231 cells [7] (versus control MDA-MB-231 cells), the “cell cycle arrest at G2/M phase relative to control cells” value is on record as “fivefold”. For the same compound, the “increase in percentage of pre-G1 phase relative to negative control” value in the data set on MDA-MB-231 cells [7] (versus negative control cells) is about 19 fold. The “percent inhibition of tubulin polymerization” value with β-tubulin is given as 78.14%.

Take `COc1ccc2c(c1)NC(/C=C(\C)C(=O)c1cc(OC)c(OC)c(OC)c1)C2` (centres unmarked) [V]: in data set [8], the IC50 was 0.003 to 0.009 µM.

In turn, `COc1cc(/C=C(\NC(=O)c2cc(OC)c(OC)c(OC)c2)C(=O)N/N=C/c2ccc(N(C)C)cc2)cc(OC)c1OC` [Compound 4i, N-((Z)-3-((E)-2-(4-(Dimethylamino)benzylidene)hydrazinyl)-3-oxo-1-(3,4,5-trimethoxyphenyl)prop-1-en-2-yl)-3,4,5-trimethoxybenzamide] yielded a melting point of 243 to 245 °C. Further, the half-inhibitory concentration (IC50) in data set [2] (setting [10]) stood at 3.46 ± 0.51 µM.

On to `COc1cc(/C=C(\NC(=O)c2cc(OC)c(OC)c(OC)c2)C(=O)N/N=C(\C)c2ccc(Cl)cc2)cc(OC)c1OC` [Compound 5b, N-((Z)-3-((E)-2-(1-(4-Chlorophenyl)ethylidene)hydrazinyl)-3-oxo-1-(3,4,5-trimethoxyphenyl)prop-1-en-2-yl)-3,4,5-trimethoxybenzamide], for which the melting point fell in the range of 249 to 251 °C. Further, the concentration for half-maximal inhibition (IC50) in [2] (setting [10]) was found to be 14 ± 1.19 µM.

In turn, `COc1cc(/C=C(\NC(=O)c2cc(OC)c(OC)c(OC)c2)C(=O)N/N=C/c2ccccc2[N+](=O)[O-])cc(OC)c1OC` [Compound 4c, 3,4,5-Trimethoxy-N-((Z)-3-((E)-2-(2-nitrobenzylidene)hydrazinyl)-3-oxo-1-(3,4,5-trimethoxyphenyl)prop-1-en-2-yl)benzamide] returned a melting point of 239 to 241 °C. Moreover, the IC50 in [2] (setting [10]) turned out to be 38.8 ± 0.93 µM.

For the compound `COc1cc(C(=O)NNC(=O)c2ccc(NC(=O)CCl)cc2)cc(OC)c1OC` [VI], in the data set on tubulin [9], the “in vitro tubulin polymerization inhibition activity” value is on record as 83.1%.

As to `COc1cc(/C=C(\NC(=O)c2cc(OC)c(OC)c(OC)c2)C(=O)N/N=C/c2ccc(Cl)cc2)cc(OC)c1OC` [Compound 4b, N-((Z)-3-((E)-2-(4-Chlorobenzylidene)hydrazinyl)-3-oxo-1-(3,4,5-trimethoxyphenyl)prop-1-en-2-yl)-3,4,5-trimethoxybenzamide], the melting point was 233 to 235 °C. Further, in data set [2] (setting [10]), the 50% inhibitory concentration (IC50) was 16.1 ± 0.83 µM.

With `COc1cc(/C=C(\NC(=O)c2cc(OC)c(OC)c(OC)c2)C(=O)N/N=C(\C)c2cc(OC)c(OC)c(OC)c2)cc(OC)c1OC` [Compound 5g, 3,4,5-Trimethoxy-N-((Z)-3-oxo-1-(3,4,5-trimethoxyphenyl)-3-((E)-2-(1-(3,4,5-trimethoxyphenyl)ethylidene)hydrazinyl)prop-1-en-2-yl)benzamide], the melting point lay within 211 to 213 °C. Besides, the IC50 in data set [2] (setting [10]) was 3.39 ± 0.26 µM.

Compound `COc1cc(/C=C(\NC(=O)c2cc(OC)c(OC)c(OC)c2)C(=O)N/N=C/c2ccc(F)cc2)cc(OC)c1OC` [Compound 4a, N-((Z)-3-((E)-2-(4-Fluorobenzylidene)hydrazinyl)-3-oxo-1-(3,4,5-trimethoxyphenyl)prop-1-en-2-yl)-3,4,5-trimethoxybenzamide] came in with a melting point of 201 to 203 °C. For the same compound, in data set [2] (setting [10]), the IC50 is 23.7 ± 1.13 µM.

For `COc1cc(/C=N/NC(=O)/C(=C/c2cc(OC)c(OC)c(OC)c2)NC(=O)c2cc(OC)c(OC)c(OC)c2)ccc1O` [Compound 4j, N-((Z)-3-((E)-2-(4-Hydroxy-3-methoxybenzylidene)hydrazinyl)-3-oxo-1-(3,4,5-trimethoxyphenyl)prop-1-en-2-yl)-3,4,5-trimethoxybenzamide], the melting point lay within 226 to 228 °C. In addition, in [2] (setting [10]), the half-inhibitory concentration (IC50) is 2.84 ± 0.18 µM.

Compound `COc1ccc(/C(C)=N/NC(=O)/C(=C/c2cc(OC)c(OC)c(OC)c2)NC(=O)c2cc(OC)c(OC)c(OC)c2)cc1` [Compound 5e, 3,4,5-Trimethoxy-N-((Z)-3-((E)-2-(1-(4-methoxyphenyl)ethylidene)hydrazinyl)-3-oxo-1-(3,4,5-trimethoxyphenyl)prop-1-en-2-yl)benzamide] yielded a melting point of 241 to 243 °C. For the same compound, the IC50 in data set [2] (setting [10]) turned out to be 9.52 ± 1.18 µM.

For `COc1ccc(/C=C\c2cc(OC)c(OC)c(OC)c2)cc1O` [CA-4, combretastatin A-4, reference compound], the IC50 in data set [2] (MDA-MB-231, read-out: IC50 Value (μM) MDA-MB-231) stood at 0.54 ± 0.04 µM; in data set [3], 8.86 ± 0.67 µM.
